Data set [1] concerns the target T1, BmoR WT (fusion with sfGFP) (Thauera butanivorans, UniProt A7MAQ9).
T1 construct: SUMO-BmoR-TEV-sfGFP-His fusion, E. coli BL21(DE3) lysate supernatant
T1 sequence (A7MAQ9 1-669): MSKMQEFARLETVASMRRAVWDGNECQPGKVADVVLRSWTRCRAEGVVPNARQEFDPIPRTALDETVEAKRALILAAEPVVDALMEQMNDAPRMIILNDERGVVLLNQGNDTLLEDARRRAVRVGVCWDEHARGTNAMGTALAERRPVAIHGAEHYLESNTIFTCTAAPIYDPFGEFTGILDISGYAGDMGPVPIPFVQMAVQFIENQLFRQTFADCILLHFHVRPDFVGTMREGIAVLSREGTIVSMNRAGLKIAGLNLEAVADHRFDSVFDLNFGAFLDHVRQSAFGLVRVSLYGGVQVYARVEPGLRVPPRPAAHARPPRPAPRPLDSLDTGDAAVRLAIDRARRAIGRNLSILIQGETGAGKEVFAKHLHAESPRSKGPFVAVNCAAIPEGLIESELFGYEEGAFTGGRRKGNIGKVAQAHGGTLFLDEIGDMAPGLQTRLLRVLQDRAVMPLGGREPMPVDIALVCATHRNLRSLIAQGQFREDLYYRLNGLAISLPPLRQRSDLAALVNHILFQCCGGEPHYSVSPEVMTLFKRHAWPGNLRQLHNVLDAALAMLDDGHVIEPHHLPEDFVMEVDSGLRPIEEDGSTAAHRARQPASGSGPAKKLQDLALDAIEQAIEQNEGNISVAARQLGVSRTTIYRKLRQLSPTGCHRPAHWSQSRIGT
Briefly: MicroScale Thermophoresis of sfGFP-fused BmoR in E. coli BL21(DE3) lysate supernatant, 16-point ligand dilution in assay buffer with 1 % DMSO, incubated at 37 °C for 15 min. The following applies: n = 3. It is filed as binding. The procedure: (§1) Plasmids pWT-SUMO-BmoR-TEV-sfGFP-His, pWT-SUMO-BmoR^M94V/A117T/F163Y/F272L-TEV-sfGFP-His, and pWT-SUMO-BmoR^M94V/W128R/F272L-TEV-sfGFP-His were individually transformed into E. coli BL21(DE3). […] Subsequently, 100 µL of the seed culture was transferred to 100 mL LB medium and grown at 37 °C until the OD600 value reached 0.8. 0.1 mM IPTG was added into the culture, and the culture was incubated at 16 °C, 170 rpm for 12–18 h. 50 mL centrifuge tubes were used to centrifuge the culture at 5,000 rpm for 15 min to collect the cell pellets. The pellets were then resuspended in 15 mL of the binding buffer, and the cells were disrupted using the ultrasonic cell crusher. The mixture was then centrifuged at 10,000 rpm for 30 min to collect the supernatant. The Kd values of the wild-type BmoR and the mutants towards four SMs were measured by the MicroScale Thermophoresis (MST, Nanotemper) from Wuhan Bio-lab Biotechnology Co., Ltd.
(§2) A 10 µL aliquot of the supernatant was diluted three folds with the assay buffer. The MST sample chamber was opened, and the tray was removed. The diluted protein sample was aspirated using a capillary and placed in the corresponding slot of the tray. The information of the protein samples and assay bugger was input, and the type of capillary was selected. The excitation power was set to “Auto”, and MST power was set to “High”. The concentration of the samples was adjusted using the assay buffer to 1/3 for BmoR^WT, BmoR^M94V/A117T/F163Y/F272L and BmoR^M94V/W128R/F272L. The samples were diluted to 100 µL/2000 µM using the assay buffer. Two eight-well strips were prepared and labeled from 1st to 16th. 10 µL of the assay buffer (1 % DMSO) was added into the 2nd-16th tubes, while 20 µL of the prepared sample was added to the 1st tube. 10 µL from the 1st tube was sequentially diluted into the 2nd-16th tubes. Subsequently, 10 µL of the lysate was added to each tube and mixed thoroughly. The mixed samples were incubated at 37 °C for 15 min before aspirating with a capillary to load into the sample tray. The software was started to begin the experiment.

A further data set addresses T2, BmoR W128R (Thauera butanivorans, UniProt A7MAQ9, W128R).
T2 construct: full-length BmoR, biosensor plasmid pWT-W128R (PbmoR-bmoR; Pbmo-gfp)
Briefly: Whole-cell BmoR biosensor dose-response (GFP/OD600, Pbmo-gfp reporter) in 96-deep-well plates with 0-60 mM pentanols or 0-100 mM butanols, LB medium at 30 °C, fitted to the Michaelis-Menten equation. The class given is cell-based, E. coli XL10-Gold. Conditions: n = 3; read-out: Apparent Km. On the procedure:
(§3) The response values of the above colonies containing various BmoR mutants to n-pentanol, isopentanol, n-butanol or isobutanol were tested. The single colonies were pre-inoculated into 5 mL LB medium with 50 μg/mL carbenicillin and then cultured at 37 °C overnight. […] The excitation and emission wavelengths were set as 470 and 510 nm, respectively. The fluorescence values were normalized as the GFP/OD600 values. Besides, 1 mL of the culture was centrifuged at 5,000 rpm for 5 min. The supernatant was discarded, and the sediment was then resuspended in 2 mL of the physiological saline. 5 μL of the culture was spotted onto glass slides for fluorescence microscopy (UOP 2100). Fifteen colonies which only responded to 10 mM n-pentanol or isopentanol were screened out. The bmoRs in the 15 colonies were amplified and sequenced to identify the mutation sites. Finally, the bmoRs in the five colonies were mutated.
(§4) The OD600 values needed to be subtracted from the OD600 value of the blank LB culture. The excitation and emission wavelengths were set as 470 and 510 nm, respectively. The fluorescence values were normalized as the GFP/OD600 values. Besides, the GFP/OD600 values of the strain containing the plasmid pYH7 was regarded as the background fluorescence to be subtracted. Apparent Km values were estimated with Prism 9.5.0 through non-linear regression of the Michaelis-Menten equation. Finally, one or two effective mutants with orthogonal response towards n-pentanol or isopentanol were obtained.

The target in a further data set is T3, BmoR WT (Thauera butanivorans, UniProt A7MAQ9).
T3 construct: full-length BmoR, expressed from biosensor plasmid (PbmoR-bmoR; Pbmo-gfp) in E. coli; hexamer
T3 sequence (A7MAQ9 1-669): T1 sequence (A7MAQ9 1-669)
The data set is described as above. Conditions: n = 3; read-out: Apparent Km. The class given is cell-based, E. coli XL10-Gold. On the procedure:
as §3, §4

The target of another data set is T4, BmoR A117T/F163Y (Thauera butanivorans, UniProt A7MAQ9, A117T/F163Y).
T4 construct: full-length BmoR, biosensor plasmid pWT-A117T/F163Y (PbmoR-bmoR; Pbmo-gfp)
T4 sequence (A7MAQ9 entry or part of it A117T/F163Y): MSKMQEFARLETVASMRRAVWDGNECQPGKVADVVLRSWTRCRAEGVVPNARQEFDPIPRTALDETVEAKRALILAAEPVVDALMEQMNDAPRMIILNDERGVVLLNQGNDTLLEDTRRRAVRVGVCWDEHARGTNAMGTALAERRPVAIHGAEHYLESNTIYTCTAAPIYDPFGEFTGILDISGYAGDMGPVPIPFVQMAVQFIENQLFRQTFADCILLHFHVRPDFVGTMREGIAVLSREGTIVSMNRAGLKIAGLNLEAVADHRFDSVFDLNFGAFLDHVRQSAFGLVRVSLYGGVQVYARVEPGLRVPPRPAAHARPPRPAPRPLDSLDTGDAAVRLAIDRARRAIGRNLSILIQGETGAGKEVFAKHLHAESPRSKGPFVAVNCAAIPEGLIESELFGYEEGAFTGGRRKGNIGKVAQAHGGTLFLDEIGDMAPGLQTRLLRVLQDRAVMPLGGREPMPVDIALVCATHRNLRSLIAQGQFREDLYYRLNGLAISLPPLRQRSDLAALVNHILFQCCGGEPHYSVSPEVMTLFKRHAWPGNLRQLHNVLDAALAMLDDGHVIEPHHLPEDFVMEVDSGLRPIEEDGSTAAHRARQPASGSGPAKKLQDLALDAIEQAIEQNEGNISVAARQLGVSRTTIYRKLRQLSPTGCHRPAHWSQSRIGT
In words: cell-based. More on the design: species or system E. coli XL10-Gold. Conditions: n = 3; read-out: Apparent Km. On the procedure: as §3
The OD600 values needed to be subtracted from the OD600 value of the blank LB culture. The excitation and emission wavelengths were set as 470 and 510 nm, respectively. The fluorescence values were normalized as the GFP/OD600 values. Besides, the GFP/OD600 values of the strain containing the plasmid pYH7 was regarded as the background fluorescence to be subtracted. Apparent Km values were estimated with Prism 9.5.0 through non-linear regression of the Michaelis-Menten equation. […]

The target of data set [2] is T5, BmoR M94V/W128R/F272L (fusion with sfGFP) (Thauera butanivorans, UniProt A7MAQ9, F272L/M94V/W128R).
T5 construct: SUMO-BmoR-TEV-sfGFP-His fusion, E. coli BL21(DE3) lysate supernatant
T5 sequence (A7MAQ9 entry or part of it M94V/W128R/F272L): as the sequence (A7MAQ9 entry or part of it A117T/F163Y) above, with M94V, T117A, W128R, Y163F, F272L counted along it
In words: MicroScale Thermophoresis of sfGFP-fused BmoR in E. coli BL21(DE3) lysate supernatant, 16-point ligand dilution in assay buffer with 1 % DMSO, incubated at 37 °C for 15 min. The class given is binding. The following applies: n = 3. The procedure: as §1, §2

For another data set, the system named is Δ33. The following applies: 40 mM. The procedure: (§5) A library of E. coli MG1655-derived strains with different genomic large-fragment deletions ranging from 14 to 143 kb was constructed and stored. To screen pentanol-tolerant strains, the strains from the library were inoculated into 3 mL LB medium and cultured at 37 °C for 8–10 h to obtain seed cultures. Subsequently, 50 µL of the seed culture was transferred to 5 mL LB medium in the presence of 20 mM n-pentanol or isopentanol and grown at 37 °C with 220 rpm for 12 h. A microplate reader (BioTek Cytation 3) was used to detect the OD600 values.

Another data set relates to Δ29. The following applies: equivalent isopentanol stress (40 mM). The procedure:
as §5

Data set [3] deals with T6, BmoR M94V/A117T/F163Y/F272L (fusion with sfGFP) (Thauera butanivorans, UniProt A7MAQ9, A117T/F163Y/F272L/M94V).
T6 construct: SUMO-BmoR-TEV-sfGFP-His fusion, E. coli BL21(DE3) lysate supernatant
T6 sequence (A7MAQ9 entry or part of it M94V/A117T/F163Y/F272L): as the sequence (A7MAQ9 entry or part of it A117T/F163Y) above, with M94V, F272L counted along it
Briefly: MicroScale Thermophoresis of sfGFP-fused BmoR in E. coli BL21(DE3) lysate supernatant, 16-point ligand dilution in assay buffer with 1 % DMSO, incubated at 37 °C for 15 min. Conditions: n = 3. The class given is binding. On the procedure:
as §1, §2

The subject of another data set is E. coli MG1655. Briefly: Tolerance of wild-type MG1655 to pentanols (OD600). The procedure:
To assess the tolerance of wild-type MG1655 to n-pentanol or isopentanol, the single colony of wild-type MG1655 was inoculated into 3 mL LB medium and cultured at 37 °C for 8–10 h to obtain the seed culture. 50 µL of the seed culture was transferred to 5 mL LB medium adding 0–100 mM n-pentanol or isopentanol and grown at 37 °C with 220 rpm for 12 h. A microplate reader (BioTek Cytation 3) was used to detect the OD600 values.

pEC50, pKd: −log10 of the molar value.

T2 sequence (A7MAQ9 entry or part of it W128R): as the sequence (A7MAQ9 entry or part of it A117T/F163Y) above, with T117A, W128R, Y163F counted along it

Consider `CC(C)CO` [Isobutanol, 2-methyl-1-propanol], for which the pKd in [1] was 4.93. In addition, the pEC50 at BmoR W128R was 1.20; at BmoR WT it was 2.06; on BmoR A117T/F163Y, 1.65.
As to `CC(C)CCO` [Isopentanol, 3-methyl-1-butanol], the negative logarithm of the Kd (pKd) in data set [2] was 7.58; in [1], 7.03. Besides, the pEC50 was 1.24 on BmoR W128R and 2.40 on BmoR WT.
For the molecule `CC(C)CCO` [isopentanol], the “fold increase of OD600 / biomass compared to the wild type” value in the data set with Δ33 is given as 1.34 fold. Further, in the data set on Δ29, the “fold higher biomass accumulation than the wild type” value came out at 1.58 fold.
Turning to `CCCCCO` [n-Pentanol, 1-pentanol], the negative-log Kd (pKd) in data set [1] was 6.97; in [3] it was 3.49. Further, the pEC50 is 2.29 on BmoR WT and 1.23 on BmoR A117T/F163Y.
Consider `CCCCCO` [n-pentanol], for which the “fold reduction of OD600” value with E. coli MG1655 (20 mM) came out at 2.67 fold. For the same molecule, the “OD600 of wild-type MG1655” value in the data set on E. coli MG1655 (20 mM, 12 h) was 0.420 ± 0.032. The “growth of wild-type MG1655 (in words)” value with E. coli MG1655 (60 mM) is given as “failing to grow”.

The record behind these values is paper PMC13227213, “Design of strictly orthogonal biosensors for maximizing renewable biofuel overproduction” (Journal of Advanced Research, 2025).
